These results are taken from patent US11591297B2, “Compound having PD-L1 expression-suppressing action” (TOHOKU UNIVERSITY, priority 2019, dated 2023).

Read-outs that look alike come from different tables or passages of the source.

The subject of one test is human PD-L1 promoter. Put plainly: Inhibitory effect of luciferase expression under control of PD-L1 promoter (A549/PD-L1luc luciferase assay, corrected by total protein). Particulars: A549/PD-L1luc cells, 48±4 hours, RLU corrected by total protein amount, read-out: IC50 (50% inhibition value of luciferase expression). Type of test: cell-based. An excerpt: A reporter vector, pPD-L1luc obtained by the insertion of a human PD-L1 promoter sequence (−2097 to 51) into the multiple cloning site of pGL-3 vector basic (Promega) expresses luciferase under the control of PD-L1 promoter when transfected into animal cells. The pPD-L1luc was transfected into a human non-small cell lung cancer-derived cell line A549 together with pPUR (Clontech) that expresses a puromycin resistance gene (puromycin-N-acetyl-transferase gene), and then cells expressing luciferase which could grow in a puromycin-supplemented medium were selected. The selected cells were named “A549/PD-L1luc cells” and used for luciferase assay as described below.
A test compound was added into a culture liquid containing A549/PD-L1luc cells to observe the influence of the test compound on the amount of luciferase expressed in the cells. Here, it can be considered that when the test compound has a cell cytotoxicity or cell growth inhibitory effect, the total expression level of luciferase is recued due to a reduction in the number of living cells that depends on the concentration of the test compound, and thus the inhibitory effect of luciferase expression under the control of PD-L1 promoter of the test compound cannot be properly evaluated.
A549/PD-L1luc cells were suspended in DMEM containing 10% fetal calf serum (FCS) and 1% penicillin/streptomycin (P/S) (hereinafter, referred to as “DMEM medium”) at 3×10^4 cells/mL to obtain a cell suspension, and the cell suspension was dispensed into each well of a 96-well plate in an amount of 100 μL. In order to perform the assay in triplicate, 3 wells were prepared for control group, and 3 wells were prepared for test compound-treated groups at each concentration. After the dispensation, the 96-well plate was incubated in a CO2 incubator (at 37° C. and 5% CO2) for 24±4 hours.
Each compound of Examples 1 to 6 and Comparative Example 1 was dissolved in dimethylsulfoxide (DMSO) to obtain 50 mmol/L of a compound solution, and the compound solution was stored at −80° C. The compound solution was diluted with DMSO in 2-fold dilution series (usually, in the range of 0.04 mmol/L to 10 mmol/L) to prepare test compound solutions whose concentration varied by two fold for luciferase assay.
Each solution of only DMSO (control) and the diluted test compound (sample) was dispensed into each well containing the cell suspension in an amount of 0.5 μL (200-fold dilution). The solution in each well was mixed with a vortex mixer, and then the 96-well plate was incubated in a CO2 incubator (at 37° C. and 5% CO2) for 48±4 hours. Luciferase Assay Substrate (hereinafter, referred to as “LAS”) supplied in Luciferase Assay Systems (Promega: Cat #E1500) was dissolved in Luciferase Assay Buffer (LAB) to prepare a luciferase reagent. 5× Cell Culture Lysis Reagent (hereinafter, referred to as “CCLR”) was diluted by 5 times with water to prepare 1×CCLR.
After the incubation for 48±4 hours, the medium in each well was completely removed, and 1×CCLR was dispensed into each well in an amount of 50 μL. The plate was allowed to stand at room temperature for 30 minutes, and then 1×CCLR in each well was used as an assay sample for luciferase and total protein amount. The luciferase reagent (100 μL) was placed in a tube for chemiluminescence measurement assay, and the assay sample (20 μL) was added into the tube and mixed with the luciferase reagent to measure chemiluminescence (Relative Luminescence Intensity: RLU) using GloMax 20/20 (Promega).
The above-mentioned assay sample (10 μL) was diluted by 10 times with water (90 μL). Each calibration curve sample was prepared by diluting the BSA solution with water as described in Table 1.
BCA reagent A and BCA reagent B (50:1) supplied in a kit for protein assay were mixed to prepare Working Reagent. Each of the calibration curve samples (Vials I to VI) and the 10-fold diluted assay samples was dispensed into each well of a 96-well plate in an amount of 25 μL, respectively. […]

The next test has as its system PD-L1. Put plainly: Inhibitory effect of PD-L1 expression by cell staining with anti-PD-L1 antibody in IFN-γ-treated THP-1 cells (flow cytometry). Particulars: Homo sapiens, IFN-γ 25 ng/mL, 24±2 hours, subMFI anti-CD274-PC7, read-out: IC50 (50% PD-L1 expression inhibition concentration). Type of test: cell-based. The protocol:
The inhibitory effects of each compound of Examples 1 to 6 on the PD-L1 expression were evaluated according to the following procedures.
(1) Acute monocytic leukemia cell-derived THP-1 cells were suspended in RPMI medium containing 10% FCS and 1% P/S (hereinafter, referred to as “RPMI medium”) at 5×10^5 cells/mL to obtain a cell suspension, and the cell suspension was dispensed into each well of a 6 well-plate in an amount of 3 mL. In order to activate the THP-1 cells and express PD-L1 in the cells, IFN-γ (PEPROTECH, Cat. No. 300-02-100UG, >2e+7 U/mg) was added into each well at a concentration of 25 ng/mL (>500 U/mL). 50 mmol/L of the test compound solution was diluted with the medium (usually, in the range of 0.025 mmol/L to 1 mmol/L), and the diluted solution was added into each well in an amount of 60 μL. The plate was incubated in a CO2 incubator (at 37° C. and 5% CO2) for 24±2 hours. In the control group, only DMSO was added in place of the test compound. (2) A part of the prepared cell culture liquid was collected and the number of cells therein was counted using a cell counter (BIORAD TC-20). The cell culture liquid was centrifuged at 300×g for 5 minutes and the supernatant of the cell culture liquid was removed. The cells were suspended in calcium and magnesium free phosphate buffered saline (PBS−) containing 1% bovine serum albumin (BSA) at a cell concentration of 1 to 2×10^7 cells/mL to prepare a cell suspension. (3) Each cell suspension prepared in the above step (2) were added into a 5 mL tube in an amount of 25 μL. 2 μL of 2% normal mouse serum/PBS− was added into tubes, and the tubes were gently pipetted. The tubes were then allowed to stand at room temperature for 15 minutes. (4) Anti-CD274-PC7 antibody (BECKMAN COULTER, Cat. No. A78884) or mouse IgG1-PC7 antibody (BECKMAN COULTER, 737662) as control was added in each tube in an amount of 10 μL, and the tubes were gently stirred. The tubes were then allowed to stand in the dark on an ice bath for 30 minutes. (5) Foxp3/Transcription Factor Fix/Perm Concentrate (4×) (Cat. No. TNB-1020-L050) (A solution) supplied in FOXP3/Transcription Factor Staining kit (TONBO biosciences) was diluted in Foxp3/Transcription Factor Fix/Perm Diluent (1×) (Cat. No. TNB-1022-L160) (A dilution solution) to prepare a 1×A solution. (6) The 1×A solution was added into each tube in an amount of 1 mL, and the tubes were gently pipetted and stirred. The tubes were then allowed to stand in the dark at room temperature for 30 minutes and centrifuged at 300×g for 5 minutes, and then the supernatants therein were removed. (7) 2 mL of 1% BSA/PBS− was added into each tube and the tubes were gently stirred and centrifuged at 300×g for 5 minutes, and then the supernatants therein were removed. (8) The cells therein were suspended in 0.5 mL of 1% BSA/PBS- and measured with a flow cytometer (Sony: Cell Sorter SH800) within 2 hours. The results were analyzed with a software, FlowJo (Tree Star Inc.). The mean peak fluorescence intensity (MFI) of PD-L1 and mean peak fluorescence intensity of IgG1 were calculated from histograms of the measured fluorescence intensity and number of cells, and the mean fluorescence intensity of IgG1 was subtracted from that of PD-L1 to calculate the subMFI. The experiments were performed in n=2.
The subMFI values of the control cells calculated by the FlowJo analysis and the cells cultured with the addition of the test compounds at each concentration (test cells) were input into an Excel file, and the percentages of the subMFI values of the test cells at each concentration to the average subMFI value of control cells were calculated. The regression line was determined from the percentages of the subMFI values of the test cells at each concentration by the method of least squares to calculate the 50% PD-L1 expression inhibition concentration (IC50 value) of each compound.
(In flow cytometry, cells or beads pass a laser one at a time.)

For `O=C(Nc1ccc(Oc2ccc(S(F)(F)(F)(F)F)cc2)cc1)C1CCCN(C(=O)c2ccc(O)cc2)C1` (centres unmarked) [Example 4], the IC50 with human PD-L1 promoter (Homo sapiens) and in the test with PD-L1 was 1200 nM each time.

As for “N-(3-(4-Chlorophenoxy)phenyl)-1-(4-hydroxyphenylcarbonyl) piperidine-3-carboxamide [Comparative Example 1, reference compound]”, the IC50 on human PD-L1 promoter came out at 14100 nM.

Regarding `O=C(Nc1ccc(Oc2ccc(C(F)(F)F)cc2)cc1)C1CCCN(C(=O)c2ccc(O)cc2)C1` (centres unmarked) [Example 1, 1-(4-Hydroxybenzoyl)-N-(4-(4-(trifluoromethyl)phenoxy)phenyl)piperidine-3-carboxamide], the results for the IC50 in the test on human PD-L1 promoter (Homo sapiens) and in the test on PD-L1 were 1300 nM and 1900 nM, respectively.
